Assay results from PubChem BioAssay AID2696 (Johns Hopkins Ion Channel Center, 2010).
Several values for one entry are separate records, joined by “and”; a condition that tells them apart may be missing. Equal entries are not always repeated.

Biological target: Short transient receptor potential channel 6 (Mus musculus) (UniProt Q61143)
Assay: TRPC6 inhibitor potency, dose response, cell-based, mouse TRPC6, HEK293, membrane potential (AID 2696)
Conditions: TRPC6-expressing HEK293 cells, membrane potential dye fluorescence, acetylcholine-stimulated

Short transient receptor potential channel 6 (Mus musculus), sequence (Q61143 whole entry, looked up): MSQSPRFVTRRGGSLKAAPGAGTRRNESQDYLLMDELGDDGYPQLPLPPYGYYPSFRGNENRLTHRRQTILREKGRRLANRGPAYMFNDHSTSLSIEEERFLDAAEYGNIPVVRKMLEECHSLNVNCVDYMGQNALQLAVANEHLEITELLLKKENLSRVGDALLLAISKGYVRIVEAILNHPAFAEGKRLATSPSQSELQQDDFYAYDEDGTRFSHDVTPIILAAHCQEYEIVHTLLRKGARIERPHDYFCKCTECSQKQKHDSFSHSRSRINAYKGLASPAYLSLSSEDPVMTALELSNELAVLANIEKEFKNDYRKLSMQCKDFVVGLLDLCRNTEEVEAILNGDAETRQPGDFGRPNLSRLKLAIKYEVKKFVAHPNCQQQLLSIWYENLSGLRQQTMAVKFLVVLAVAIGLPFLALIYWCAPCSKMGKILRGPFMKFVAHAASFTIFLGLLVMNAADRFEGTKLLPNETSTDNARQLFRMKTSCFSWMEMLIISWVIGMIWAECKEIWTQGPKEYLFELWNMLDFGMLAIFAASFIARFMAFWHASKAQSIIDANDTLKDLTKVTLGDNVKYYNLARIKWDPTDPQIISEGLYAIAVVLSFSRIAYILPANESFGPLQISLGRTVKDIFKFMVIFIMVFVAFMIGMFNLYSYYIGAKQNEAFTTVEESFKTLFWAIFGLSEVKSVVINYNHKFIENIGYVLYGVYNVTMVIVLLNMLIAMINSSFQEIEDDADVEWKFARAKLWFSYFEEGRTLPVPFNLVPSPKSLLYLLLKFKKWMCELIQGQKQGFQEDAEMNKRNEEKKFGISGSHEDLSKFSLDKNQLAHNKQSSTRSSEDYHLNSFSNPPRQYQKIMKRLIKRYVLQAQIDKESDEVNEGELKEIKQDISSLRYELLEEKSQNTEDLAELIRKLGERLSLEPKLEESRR

Compound	IC50
Cn1c2c(c(=O)n(C)c1=O)C(C(F)(F)F)(C(F)(F)F)N=C(c1ccc(Cl)cc1)N2	7.94 µM
O=C(NC(Nc1nc2ccc([N+](=O)[O-])cc2s1)(C(F)(F)F)C(F)(F)F)c1ccccc1	8.91 µM
CCOc1ccc(NC(=O)c2c(NC(=O)CN3CCN(C)CC3)sc3c2CCC3)cc1	44.7 µM
Clc1ccc(C(c2ccccc2)N2CCNCC2)cc1 (configuration not stated)	50.1 µM
Cc1cccc(C(=O)NNC2=C(C(=O)C(F)(F)F)CCC2)c1O	44.7 µM
Cc1cc(C)c2sc(N(CCCN(C)C)C(=O)c3ccc(Br)s3)nc2c1	63.1 µM
CCOC(=O)c1ccc(NC(=O)CCc2ccc(CC)o2)cc1	79.4 µM
Cn1c(NCc2c[nH]c3ccccc23)nc2ccccc21	50.1 µM
COc1ccc(CCC(C)NC2C3CC4CC(C3)CC2C4)cc1 (configuration not stated)	44.7 µM
Cc1ccc(-c2cc(-c3ccc(C)cc3)[n+](-c3ccccc3)c(-c3ccc(C)cc3)c2)cc1	50.1 µM
CN(c1ccccc1)P(=O)(N(C)c1ccccc1)N(C)c1ccccc1	44.7 µM
Cc1cccn2c(=O)c3cc(C(=O)NCc4ccco4)c(=N)n(C(C)C)c3nc12	44.7 µM
Cc1nc2c(o1)CCc1ccccc1C2N1CCN(C)CC1 (configuration not stated)	0.79 µM and 3.16 µM
Cc1ccc(S(=O)(=O)n2c(N)nc3ccccc32)cc1	17.8 µM
Nc1cccc2nc3ccccc3cc12	50.1 µM
CCN(CC)CCOC(=O)C1(c2ccccc2)CCCC1	15.8 µM
CN1CCN(CCC(C#N)(c2ccccc2)c2ccccc2)CC1	39.8 µM
O=C(c1ccc2c(=O)n3c(nc2c1)CCCCC3)N1CCN(C(c2ccccc2)c2ccccc2)CC1	19.9 µM
O=C(OCCN1CCCC1)C1(c2ccccc2)CCCC1	15.8 µM
CCC(CO)(C(=O)OC1C[N+]2(C)CCC1CC2)c1ccccc1 (configuration not stated)	1.58 µM
C[N+]12CCC(CC1)C(OC(=O)C(O)(c1ccccc1)c1ccccc1)C2 (configuration not stated)	0.04 µM
COc1ccc(N2C(=O)CSC23C(=O)N2CCCc4cccc3c42)cc1 (configuration not stated)	1.12 µM

Compound	IC50
COCCNC(=O)c1cc2c(=O)n3cccc(C)c3nc2n(Cc2ccncc2)c1=N	39.8 µM
CC1=NN(c2ccccc2)C(=O)/C1=C/C=C/c1ccc(N(C)C)cc1	44.7 µM
CC1CCC(C(C)C)C(OCC[N+](C)(C)C)C1 (configuration not stated)	2.82 µM
CCc1ccc(N=C2N=C(N)c3ccccc32)cc1	50.1 µM
CN1C2CCC1CC(OC(c1ccccc1)c1ccccc1)C2 (configuration not stated)	0.32 µM
CC(C)NCC(O)Cn1c2c(c3ccccc31)CCc1c-2cnn1-c1ccccc1 (configuration not stated)	79.4 µM
CC[N+](C)(CC)CCC(c1ccccc1)C1CCCCC1 (configuration not stated)	4.47 µM
CCOC(=O)c1sc(=S)n(-c2ccccc2Cl)c1SC	12.6 µM
CC(C)N1CCC2(CC1)N=C(c1ccc3c(c1)OCO3)CC(c1cc(Cl)ccc1O)N2 (configuration not stated)	70.8 µM
O=C1c2cccc3cccc(c23)C(=O)N1CC1CCN(CC(O)COCc2ccc3c(c2)OCO3)CC1 (configuration not stated)	50.1 µM
CCN(CC)CCNC(=O)c1ccc(NC(=O)c2cccc(S(=O)(=O)Nc3ccc(C)cc3)c2)cc1	31.6 µM
CCC(CO)(C(=O)OC1CC2CCC(C1)N2C)c1ccccc1 (configuration not stated)	0.09 µM
CC(Cc1ccccc1Sc1ccccc1O)N(C)C (configuration not stated)	39.8 µM
COc1cc(-c2nc3ccc(C)cn3c2Nc2ccc3c(c2)OCCO3)ccc1O	44.7 µM
CC1(C(O)(C#CC[N+]2(C)CCCCC2)c2ccccc2)CCCC1 (configuration not stated)	0.14 µM
CCOC(=O)c1nc2cc3n(c(C)c-2c1C)C(C)C(C)=C3C (configuration not stated)	44.7 µM
COc1ccccc1N1CCN(Cc2ccc(O)c3ncccc23)CC1	39.8 µM
CCOC(=O)c1cnc2c(C)cccc2c1NCCCN1CCOCC1	44.7 µM
Cc1ccc(C)c(Nc2nc(N)c3ccccc3n2)c1	19.9 µM
COc1ccc(-c2cc(=Nc3ccc(C)cc3)c3ccccc3o2)cc1	44.7 µM
CN(C)CCCNc1nc(-c2ccccc2)nc2ccccc12	79.4 µM
Cc1cc(C)c2nc(C)cc(Nc3ccc(C(=O)N4CCOCC4)cc3)c2c1	79.4 µM

Compound	IC50
Cc1ccccc1CCNCc1cc2cccc(C)c2[nH]c1=O	50.1 µM
Cc1ccc(C2N(c3ccccc3)C(=S)N3CCCN23)cc1 (configuration not stated)	25.1 µM
CC(O)CNCCNCc1c(OCc2ccccc2)ccc2ccccc12 (configuration not stated)	44.7 µM
CCN(CC)CCSc1nnc2c3ccccc3n(Cc3ccccc3)c2n1	44.7 µM
CC(/C=N/n1c(-c2n[nH]c3c2CCC3)n[nH]c1=S)=C\c1ccco1	8.91 µM
COc1ccc2ccccc2c1CNC(C)CCc1ccccc1 (configuration not stated)	15.8 µM
CC(C)[N+](C)(CCOC(=O)C1c2ccccc2Oc2ccccc21)C(C)C	0.07 µM
CCN1CCN(c2nc3ccccc3nc2C(C#N)C(=O)OCc2ccccc2)CC1 (configuration not stated)	70.8 µM
CN1CCC(OC(c2ccccc2)c2ccccc2)CC1	15.8 µM
CCN(CC)CCn1c(NC(=O)c2ccccc2O)nc2ccccc21	31.6 µM
Cc1ccc(OCCCCCCN2CCNCC2)c(Br)c1	79.4 µM
O=C(c1ccc(C(=O)N2CCCc3ccccc32)s1)N1CCCc2ccccc21	44.7 µM
CC[n+]1c(/C=C/Nc2ccccc2)sc2ccccc21	79.4 µM
Cc1cc(N=Nc2ccccc2)c(NCC(O)C(O)C(O)CO)cc1C (configuration not stated)	50.1 µM
OC(CCN1CCCCC1)(c1ccccc1)c1ccccc1	2.82 µM
Fc1ccc2[nH]c3c(c2c1)CN(C(=S)NCc1ccccc1)CC3	31.6 µM
COc1ccccc1-n1c(-c2ccccc2)c[n+]2c1CCc1ccccc1-2	19.9 µM
O=C1Nc2ccccc2/C1=N\N=C\C1=C(N2CCOCC2)C(=C\c2ccccc2)/CC1	39.8 µM
CC(C)[N+](C)(C)CC#CC(O)(c1ccccc1)c1ccccc1	2 µM
CN(CC#CC(O)(c1ccccc1)c1ccccc1)C(C)(C)C	12.6 µM
CN(C)C/C=C/C(O)(c1ccccc1)c1ccccc1	10 µM
CCN(CC)CC(=O)N1c2ccccc2Sc2ccc(Cl)cc21	44.7 µM

Compound	IC50
OC(CCN1CCCC1)(c1ccccc1)C1CCCCC1 (configuration not stated)	4.47 µM
CCOC(=O)N1CCC(N2CCN(CCC(C)C)C(CCO)C2)CC1 (configuration not stated)	14.1 µM
CC[N+](C)(CC)CCOC(=O)C(O)(c1ccccc1)C1CCCCC1 (configuration not stated)	0.79 µM
CCOc1cccc(=NC2CCCCC2)c2c(C)n(C)c(C)c12	50.1 µM
Cc1cccc(CCNCc2cc3cccc(C)c3[nH]c2=O)c1	50.1 µM
Cc1ccc(C(OCC(C)(C)C[N+](C)(C)C)c2ccccc2)cc1 (configuration not stated)	44.7 µM
CCN(CC)CCC/C(=N\O)C(O)(c1ccccc1)c1ccccc1	7.94 µM
CCN(CC)CC(=O)Nc1cc(N(C)C)nc2ccccc12	70.8 µM
CCOC(=O)c1c(CNc2ccncc2)n(C)c2cc(Br)c(O)cc12	44.7 µM
N=c1c(C(=O)NCCN2CCOCC2)cc2c(=O)n3ccccc3nc2n1CCc1ccccc1	50.1 µM
Cc1ccccc1Nc1nc(N)c2ccccc2n1	44.7 µM
Nc1nc(Nc2cccc(F)c2)nc2ccccc12	39.8 µM
CCOC(=O)c1[nH]c2ccc(F)cc2c1NC(=O)CN1CCN(C/C=C/c2ccccc2)CC1	31.6 µM
COc1ccccc1OCCNCC(O)COc1cccc2[nH]c3ccccc3c12 (configuration not stated)	44.7 µM
O=C(CSc1c2c(nc3ccc(Cl)cc13)CCCC2)NCCCN1CCOCC1	39.8 µM
Nc1c2c(nc3ccccc13)N(C1CCCCC1)CC2	70.8 µM
CN(C)c1cc(NC(=O)CN2CCCC2)c2ccccc2n1	44.7 µM
COc1ccccc1Nc1nc(NCC2CCCO2)c2ccccc2n1 (configuration not stated)	79.4 µM
CCOC(=O)c1cn(C2CC2)c2c(F)c(NCCCN(C)C)c(F)cc2c1=O	70.8 µM
COC(=O)C(NC(=O)c1ccc(C)cc1)(Nc1cccc(C)n1)C(F)(F)F (configuration not stated)	50.1 µM
C#CC[N+]1(C)[C@@H]2CC(OC(=O)C(CO)c3ccccc3)C[C@H]1C(O)C2 (some centres not stated)	3.55 µM
